Broadly, the inhibition is the change of the read-out against control, counted positive when it falls.

Results on 6 compounds are retold here after EP0326628A1, “Method for inhibiting the release of histamine” (VIPONT PHARMACEUTICAL, INC., priority 1988, dated 1989).

Each structure is given as a SMILES string. Where two headings read alike, the source gives them in different places.

The test system of test [1] is mast cells. The following applies: compound 48/80; read-out: IC50, compound 48/80 induced histamine release; cited from earlier work.
Test [2] deals with mast cells. In words: Literature (Pearce et al. 1979): inhibition of histamine release produced by compound 48/80, calcium-ionophore A23187 and basic peptide 401. It is filed as cell-based. The following applies: comparison of IC50 with sanguinarine inhibited histamine release.
For test [3], the system named is mast cells. The following applies: release produced by compound 48/80, calcium-ionophore A23187, basic peptide 401; read-out: IC50, inhibition of histamine release; cited from earlier work.
For test [4], the system named is mast cells. In words: Histamine release from rat isolated peritoneal mast cells and its inhibition. In kind it is cell-based, male Wistar rat. The following applies: for Histamine Release (%) / inhibition at 5 µM: Sanguinarine 5 µM. How it is done: In exemplifying the invention, mast cells were isolated from the peritoneal fluid of male Wistar rat as described in Sugiyama, K. (1971) Japan J. Pharmacol. 21, 209-226. The mast cells were suspended in a phosphate buffered saline solution consisting of 154 mM sodium chloride, 2.7mM potassium chloride, 0.9 mM calcium chloride, 6.7 mM KH₂PO₄-Na₂HPO₄, (pH 7.3), and 0.01% bovine serum albumin obtained from Sigma.
For the determination of histamine release and its inhibition by sangainarine., mast cells at a cell density of 10⁵ cells/ml suspended in 0.5 ml of phosphate-buffered saline, were incubated at 37°C for 10 minutes with histamine releasers, more about which is stated below. Sanguinarine was added 5 minutes before the specific histamine releaser. After the action was terminated by the addition of 1.5 ml of ice-cold phosphate-buffered saline solution, the samples were centrifuged at 2,000 rpm for 15 minutes. The histamine in the supernatants and precipitates was determined according to the method of Shore, P.A., Burkhalter, A. and Cohn N.H. (1959) J. Pharmacol. Exp Ther. 127, 182-186. Release of histamine was expressed as a percentage of the total cell content. Percentages of inhibition by sanguinarine were measured according to the following equation: [formula] The sanguinarine chloride was provided from Vipont Laboratories Inc. and is manufactured in the manner disclosed above.
Histidine-rich polypetide fraction A, known as HRP(F-A) was purified from human saliva in accordance with the procedure of Sugiyama, K., Suzuki, Y and Furuta, H (1985) Life Sciences. 37, 475-480. The comparison was carried out with known histamine releasers, namely, 48/80; Concanavalin A; calcium-ionophore A23187. These releasers may be obtained from Sigma Co.
With regard to Figure 1, inhibition by sanguinarine of histamine release induced by compound 48/80 is shown. The mast cells were incubated at 37°C for 10 minutes with and without compound 48/80 in the presence of sanguinarine in varying concentrations. (●) Sanguinarine with compound 48/80 (0.5 µ g/ml), (0) Sanguinarine without compound 48/80.

As to `COc1ccc2c(c1)c(CC(=O)O)c(C)n2C(=O)c1ccc(Cl)cc1` [indomethacin], the IC50 in the test with mast cells [1] is 75 µM.

For `O=C([O-])c1ccccc1O.[Na+]` [sodium salicylate], the IC50 in the test with mast cells [1] was 1600 µM.

With `O=C(O)c1cc(=O)c2c(OCC(O)COc3cccc4oc(C(=O)O)cc(=O)c34)cccc2o1` [cromoglycate], the “times less active than sanguinarine” value in the test with mast cells [2] was 10 to 100 times. For the same compound, the IC50 with mast cells [3] is 10 to 1000 µM.

As to `C[C@]12CCC(=O)C=C1CC[C@@H]1[C@@H]2[C@@H](O)C[C@@]2(C)[C@H]1CC[C@]2(O)C(=O)CO` [hydrocortisone], the IC50 with mast cells [1] is 2100 µM.

Take `Cn1c(=O)c2[nH]cnc2n(C)c1=O` [theophylline]: the “times less active than sanguinarine” value in the test on mast cells [2] is listed as 10 to 100 times. The IC50 in the test on mast cells [3] was 10 to 1000 µM.

Turning to `C[n+]1cc2c3c(ccc2c2ccc4cc5c(cc4c21)OCO5)OCO3` [Sanguinarine, sanguinarine], the “Histamine Release (%)” value in the test with mast cells [4] (A23187 (1 µ M)) stood at 21.1%; in the test on mast cells [4] (Compound 48/80 (0.5 µ g/ml)), 15.4%; in the test with mast cells [4] (Con A (10 µg/ml) in the presence of phosphatidylserine (10 µ g/ml)), 27.3%; in the test with mast cells [4] (HRP (16 µ M)), 17.6%; in the test on mast cells [4] (Triton X-100 (0.01 %)), 93.8%. For the same compound, in the test on mast cells [4] (Rattus norvegicus, Mast cell, 10 min, compound 48/80 (0.5 µ g/ml), 37°C, 10 minutes, Figure 1, read-out: IC50 (inhibition concentration), 48/80 induced histamine release from mast cells), the IC50 is roughly 2 µM. The inhibition at 5 µM is 63.4% with mast cells [4] (Rattus norvegicus, Mast cell, A23187 (1 µ M)); 78.7% in the test with mast cells [4] (Rattus norvegicus, Mast cell, Compound 48/80 (0.5 µ g/ml)); 56.6% in the test with mast cells [4] (Rattus norvegicus, Mast cell, Con A (10 µg/ml) in the presence of phosphatidylserine (10 µ g/ml)); 69.4% with mast cells [4] (Rattus norvegicus, Mast cell, HRP (16 µ M)); -10.6% in the test with mast cells [4] (Rattus norvegicus, Mast cell, Triton X-100 (0.01 %)).
